Reference: paper PMC8231969, “Characterization of Two NMN Deamidase Mutants as Possible Probes for an NMN Biosensor” (International Journal of Molecular Sciences, 2021)
Where two headings read alike, the source gives them in different places.

Key:
WT PncC (NMN deamidase) = system: T1, WT PncC (NMN deamidase); assay: Fluorescence-based thermal shift binding assay, wild-type PncC; set-up: species or system E. coli; conditions: 1 mM NMN
T1 construct: made in house; host or cells: E. coli BL21(DE3)
Protocol: (§1) Protein melting temperature (Tm) was determined by fluorescence-based thermal shift assay using fluoroprobe SYPRO Orange dye (Invitrogen, Waltham, MA, USA). The assay was performed in a RotorGene 3000 real-time PCR (Corbett, Biocompare, San Francisco, CA, USA). The assay mixture contained 50 mM Hepes/NaOH, pH 7.5, 300 mM NaCl, 1 mM TCEP, 1 μM protein, Sypro orange at 10-fold dilution from a 5000-fold stock, and the various ligands at the tested concentrations, in a final volume of 25 μL. The mixtures were pre-heated at 40 °C for 5 s, then heated to 50 °C in 1 s, and finally heated from 50 to 99 °C with a heating-up rate of 0.5 °C every 5 s. The fluorescence intensity was measured with Ex/Em: 470/585 nm. The melting temperature was determined by taking the maximum point of the slope-derivative peak. Kd values were determined by plotting the percentage of unfolded proteins as a function of nucleotide concentration at a fixed temperature, after normalization of the unfolding curves. Fitting of the data was performed using the equations reported in [34]. Three independent experiments were carried out and values were reported as the means ± standard deviation.

S29A PncC [1] = target: T2, S29A PncC (Escherichia coli, UniProt P0A6G3, S29A); assay: biochemical; format: binding, E. coli
T2 construct: made in house; host or cells: E. coli BL21(DE3)
T2 sequence (P0A6G3 whole entry S29A): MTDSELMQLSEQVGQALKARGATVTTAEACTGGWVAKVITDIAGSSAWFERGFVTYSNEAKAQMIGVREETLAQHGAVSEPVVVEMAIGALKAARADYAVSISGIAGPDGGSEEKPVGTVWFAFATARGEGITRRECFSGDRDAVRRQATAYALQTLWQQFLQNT

Y56A PncC = system: T3, Y56A PncC; assay: Fluorescence-based thermal shift binding assay, Y56A PncC; set-up: species or system E. coli
T3 construct: made in house; host or cells: E. coli BL21(DE3)
Protocol: as §1

K61Q PncC [2] = target: T4, K61Q PncC (Escherichia coli, UniProt P0A6G3, K61Q); assay: biochemical; format: binding, E. coli
T4 construct: made in house; host or cells: E. coli BL21(DE3)
T4 sequence (P0A6G3 whole entry K61Q): as the sequence (P0A6G3 whole entry S29A) above, with A29S, K61Q counted along it

R142A PncC = system: T5, R142A PncC; assay: Fluorescence-based thermal shift binding assay, R142A PncC; set-up: species or system E. coli
T5 construct: made in house; host or cells: E. coli BL21(DE3)
Protocol: as §1

S29A PncC [3] = target: T2, S29A PncC; format: binding, E. coli
Excerpt: (§2) Experimental data were processed using the OriginPro 8.0 (OriginLab Corporation, Northampton, MA, USA). A non-linear curve analysis (Hill1 plot) was used for plotting the F0/F values in function of the metabolite concentration, to obtain the Kd value.

K61Q PncC [4] = target: T4, K61Q PncC; format: binding, E. coli
Protocol: as §2
Percentage of the K61Q protein that would exist in complex with NMN in a cellular setting was calculated based on the Kd value, by using the equation: %=100/1+Kd/[NMN]

[5] = system: glutamine binding protein (GlnBP); conditions: GlnBP 3 µM, 96 µM nucleotide
Protocol: Steady-state measurements were performed using an ISS_K2 fluorometer (ISS, Urbana-Champaign, IL, USA), equipped with a one-cell temperature-controlled sample holder. […] Excitation and emission slit widths were fixed at 0.5 and 1.0 nm, respectively. […] The nucleotides were added to reach the indicated final concentration (from 0.18 to 96 µM) with an incubation interval of 10 min. Triplicate readings were done for each experimental point. Experiments were repeated three times (for NMN and NaMN) or twice (for all the other metabolites). Controls experiments were performed using the E. coli Glutamine Binding Protein (GlnBP, 3µM), with increasing concentration of NMN or NaMN, at the same conditions.
Percentages of reduction of fluorescence intensities compared to buffer, were calculated as follow: (normalized fluorescence in presence of analyte at a given [µM]/normalized fluorescence in presence of corresponding volume of buffer) × 100.

NC(=O)c1ccc[n+]([C@@H]2O[C@H](COP(=O)([O-])O)[C@@H](O)[C@H]2O)c1 [NMN, nicotinamide mononucleotide]
Tm (+NMN) (WT PncC (NMN deamidase)): 92.2 °C | ΔTm (WT PncC (NMN deamidase)): 6.1 °C | Tm (+NMN) (S29A PncC [1]; S29A PncC, 1 mM NMN): 95.5 °C | ΔTm at 1000 µM (S29A PncC [1]; read-out: ΔTm): 10 °C | Tm (+NMN) (Y56A PncC; 1 mM NMN): 83.6 °C | Effect of NMN on Tm (Y56A PncC; 1.0 mM NMN): not affected | Tm (+NMN) (K61Q PncC [2]; K61Q PncC, 1 mM NMN): 86.2 °C | ΔTm at 1000 µM (K61Q PncC [2]; read-out: ΔTm): 18.7 °C | Tm (+NMN) (R142A PncC; 1 mM NMN): 52.4 °C | Effect of NMN on Tm (R142A PncC; 1.0 mM NMN): not affected | Hill coefficient (nH) (S29A PncC [3]; S29A PncC, Trp fluorescence): 0.98± 0.1 | S29A PncC fluorescence quenching (%) vs buffer (S29A PncC [3]; nucleotide 0.185 µM): 0.48% | S29A PncC fluorescence quenching (%) vs buffer (S29A PncC [3]; nucleotide 0.375 µM): 0.58% | S29A PncC fluorescence quenching (%) vs buffer (S29A PncC [3]; nucleotide 0.75 µM): 2.58% | S29A PncC fluorescence quenching (%) vs buffer (S29A PncC [3]; nucleotide 3 µM): 17.42% | S29A PncC fluorescence quenching (%) vs buffer (S29A PncC [3]; nucleotide 6 µM): 17.55% | S29A PncC fluorescence quenching (%) vs buffer (S29A PncC [3]; nucleotide 12 µM): 27.06% | S29A PncC fluorescence quenching (%) vs buffer (S29A PncC [3]; nucleotide 24 µM): 37.52% | S29A PncC fluorescence quenching (%) vs buffer (S29A PncC [3]; nucleotide 48 µM): 46.79% | Hill coefficient (nH) (K61Q PncC [4]; K61Q PncC, Trp fluorescence): 1.3±0.2 | K61Q PncC fluorescence quenching (%) vs buffer (K61Q PncC [4]; nucleotide 0.185 µM): 1.09% | K61Q PncC fluorescence quenching (%) vs buffer (K61Q PncC [4]; nucleotide 0.375 µM): 1.84% | K61Q PncC fluorescence quenching (%) vs buffer (K61Q PncC [4]; nucleotide 0.75 µM): 3.19% | K61Q PncC fluorescence quenching (%) vs buffer (K61Q PncC [4]; nucleotide 1.5 µM): 4.87% | K61Q PncC fluorescence quenching (%) vs buffer (K61Q PncC [4]; nucleotide 3 µM): 6.26% | K61Q PncC fluorescence quenching (%) vs buffer (K61Q PncC [4]; nucleotide 6 µM): 8.11% | K61Q PncC fluorescence quenching (%) vs buffer (K61Q PncC [4]; nucleotide 12 µM): 12.12% | K61Q PncC fluorescence quenching (%) vs buffer (K61Q PncC [4]; nucleotide 24 µM): 20.07% | K61Q PncC fluorescence quenching (%) vs buffer (K61Q PncC [4]; nucleotide 48 µM): 38.03% | quenching of fluorescence of GlnBP [5]: 4.3%
